In patent US20230019236A1, “PROTEIN TYROSINE PHOSPHATASE INHIBITORS AND METHODS OF USE THEREOF” (Calico Life Sciences LLC, priority 2019, published 2023) one finds IC50 data, which are given here for 26 molecules.

This assay addresses T1, His tagged full-length PTP1B protein (Homo sapiens, UniProt P18031).
T1 construct: made in house
T1 sequence (P18031 with tags, fused parts or gaps): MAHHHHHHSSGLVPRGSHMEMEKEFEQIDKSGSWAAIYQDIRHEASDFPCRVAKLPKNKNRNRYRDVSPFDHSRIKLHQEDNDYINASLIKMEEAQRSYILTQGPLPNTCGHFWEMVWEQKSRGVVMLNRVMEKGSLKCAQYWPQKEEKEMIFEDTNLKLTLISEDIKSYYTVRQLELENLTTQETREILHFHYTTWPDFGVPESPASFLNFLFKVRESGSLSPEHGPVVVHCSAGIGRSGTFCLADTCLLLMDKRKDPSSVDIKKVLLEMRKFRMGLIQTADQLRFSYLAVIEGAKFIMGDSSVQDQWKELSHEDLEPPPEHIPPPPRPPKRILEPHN
The assay is described as follows: Mobility Shift Assay (MSA) used to determine potency of PTP1B inhibitors. The format is biochemical. The settings on record: Table 2. How it is done:
The enzymatic assay used to determine activity is a mobility shift assay using a LabChip EZ Reader by Caliper Life Sciences. The enzymatic reaction was carried out in assay buffer (50 mM HEPES pH 7.5, 1 mM EGTA, 10 mM EDTA, 0.01% Tween® 20, and 2 mM DTT). […] The enzyme (at 0.5 nM) was incubated with compound for 10 minutes at room temperature. […] The % inhibition was then used to calculate the IC50 values.
Consider `CCN(CC)C(=O)COc1ccc2cc(O)c(N3CC(=O)NS3(=O)=O)c(F)c2c1` [Compound 282, N,N-diethyl-2-{[8-fluoro-6-hydroxy-7-(1,1,4-trioxo-1λ^6,2,5-thiadiazolidin-2-yl)naphthalen-2-yl]oxy}acetamide], for which the IC50 lay in the range of 10 to 100 nM.
The same measure for `O=C1CN(c2c(O)cc3ccc(OCC(=O)N4CCCC4)cc3c2F)S(=O)(=O)N1` [Compound 283, 5-{1-fluoro-3-hydroxy-7-[2-oxo-2-(pyrrolidin-1-yl)ethoxy]naphthalen-2-yl}-1λ^6,2,5-thiadiazolidine-1,1,3-trione]: 10 to 100 nM; for `CS(=O)(=O)N1CCC(Oc2ccc3cc(O)c(N4CC(=O)NS4(=O)=O)c(F)c3c2)CC1` [Compound 284, 5-(1-fluoro-3-hydroxy-7-{[1-(methanesulfonyl)piperidin-4-yl]oxy}naphthalen-2-yl)-1λ^6,2,5-thiadiazolidine-1,1,3-trione]: 1 to 10 nM.
As for `COCCS(=O)(=O)N1CC=C(c2ccc3cc(O)c(N4CC(=O)NS4(=O)=O)c(F)c3c2)C1` [Compound 286, 5-{1-fluoro-3-hydroxy-7-[1-(2-methoxyethanesulfonyl)-2,5-dihydro-1H-pyrrol-3-yl]naphthalen-2-yl}-1λ^6,2,5-thiadiazolidine-1,1,3-trione], the IC50 is less than 1 nM.
Regarding `O=C1CN(c2c(O)cc3ccc(C4=CCN(S(=O)(=O)CCC(F)(F)F)C4)cc3c2F)S(=O)(=O)N1` [Compound 287, 5-{1-fluoro-3-hydroxy-7-[1-(3,3,3-trifluoropropane-1-sulfonyl)-2,5-dihydro-1H-pyrrol-3-yl]naphthalen-2-yl}-1λ^6,2,5-thiadiazolidine-1,1,3-trione], the IC50 lay in the range of 1 to 10 nM.
Turning to `O=C1CN(c2c(O)cc3ccc(C4=CCN(S(=O)(=O)CCCC(F)(F)F)C4)cc3c2F)S(=O)(=O)N1` [Compound 290, 5-{1-fluoro-3-hydroxy-7-[1-(4,4,4-trifluorobutane-1-sulfonyl)-2,5-dihydro-1H-pyrrol-3-yl]naphthalen-2-yl}-1λ^6,2,5-thiadiazolidine-1,1,3-trione], the IC50 was less than 1 nM.
The same measure for `CCCCS(=O)(=O)N1CC=C(c2ccc3cc(O)c(N4CC(=O)NS4(=O)=O)c(F)c3c2)C1` [Compound 291, 5-{7-[1-(butane-1-sulfonyl)-2,5-dihydro-1H-pyrrol-3-yl]-1-fluoro-3-hydroxynaphthalen-2-yl}-1λ^6,2,5-thiadiazolidine-1,1,3-trione]: less than 1 nM; for `N#CCCCCS(=O)(=O)N1CC=C(c2ccc3cc(O)c(N4CC(=O)NS4(=O)=O)c(F)c3c2)C1` [Compound 293, 5-{3-[8-fluoro-6-hydroxy-7-(1,1,4-trioxo-1λ^6,2,5-thiadiazolidin-2-yl)naphthalen-2-yl]-2,5-dihydro-1H-pyrrole-1-sulfonyl}pentanenitrile]: less than 1 nM; for `CCS(=O)(=O)N1CC=C(c2ccc3cc(O)c(N4CC(=O)NS4(=O)=O)c(F)c3c2)C1` [Compound 295, 5-{7-[1-(ethanesulfonyl)-2,5-dihydro-1H-pyrrol-3-yl]-1-fluoro-3-hydroxynaphthalen-2-yl}-1λ^6,2,5-thiadiazolidine-1,1,3-trione]: less than 1 nM.
For `CC(C)S(=O)(=O)N1CC=C(c2ccc3cc(O)c(N4CC(=O)NS4(=O)=O)c(F)c3c2)C1` [Compound 296, 5-{1-fluoro-3-hydroxy-7-[1-(propane-2-sulfonyl)-2,5-dihydro-1H-pyrrol-3-yl]naphthalen-2-yl}-1λ^6,2,5-thiadiazolidine-1,1,3-trione], the IC50 is less than 1 nM.
Regarding `O=C1CN(c2c(O)cc3ccc(C4=CCN(S(=O)(=O)C5CC5)CC4)cc3c2F)S(=O)(=O)N1` [Compound 297, 5-{7-[1-(cyclopropanesulfonyl)-1,2,3,6-tetrahydropyridin-4-yl]-1-fluoro-3-hydroxynaphthalen-2-yl}-1λ^6,2,5-thiadiazolidine-1,1,3-trione], the IC50 fell in the range of 1 to 10 nM.
The same measure for `O=C1CN(c2c(O)cc3ccc(C4CCNCC4)cc3c2F)S(=O)(=O)N1` [Compound 299, 5-[1-fluoro-3-hydroxy-7-(piperidin-4-yl)naphthalen-2-yl]-1λ^6,2,5-thiadiazolidine-1,1,3-trione]: 10 to 100 nM; for `CC(C)CS(=O)(=O)N1CC=C(c2ccc3cc(O)c(N4CC(=O)NS4(=O)=O)c(F)c3c2)C1` [Compound 300, 5-{1-fluoro-3-hydroxy-7-[1-(2-methylpropane-1-sulfonyl)-2,5-dihydro-1H-pyrrol-3-yl]naphthalen-2-yl}-1λ^6,2,5-thiadiazolidine-1,1,3-trione]: less than 1 nM.
The same measure for `CCOc1ccc2cc(O)c(N3CC(=O)NS3(=O)=O)c(F)c2c1` [Compound 301, 5-(7-ethoxy-1-fluoro-3-hydroxynaphthalen-2-yl)-1λ^6,2,5-thiadiazolidine-1,1,3-trione]: greater than 100 nM.
Then `O=C1CN(c2c(O)cc3ccc(OCC(F)F)cc3c2F)S(=O)(=O)N1` [Compound 302, 5-[7-(2,2-difluoroethoxy)-1-fluoro-3-hydroxynaphthalen-2-yl]-1λ^6,2,5-thiadiazolidine-1,1,3-trione], with 10 to 100 nM; and `O=C1CN(c2c(O)cc3ccc(-c4cnn(S(=O)(=O)C5CC5)c4)cc3c2F)S(=O)(=O)N1` [Compound 303, 5-{7-[1-(cyclopropanesulfonyl)-1H-pyrazol-4-yl]-1-fluoro-3-hydroxynaphthalen-2-yl}-1λ^6,2,5-thiadiazolidine-1,1,3-trione], with 1 to 10 nM; and `CS(=O)(=O)N1CC[C@@H](Nc2ccc3cc(O)c(N4CC(=O)NS4(=O)=O)c(F)c3c2)C1` [Compound 304, 5-(1-fluoro-3-hydroxy-7-{[(3R)-1-(methanesulfonyl)pyrrolidin-3-yl]amino}naphthalen-2-yl)-1λ^6,2,5-thiadiazolidine-1,1,3-trione], with 10 to 100 nM.
For `CS(=O)(=O)N1CCC(Nc2ccc3cc(O)c(N4CC(=O)NS4(=O)=O)c(F)c3c2)CC1` [Compound 305, 5-(1-fluoro-3-hydroxy-7-{[1-(methanesulfonyl)piperidin-4-yl]amino}naphthalen-2-yl)-1λ^6,2,5-thiadiazolidine-1,1,3-trione], the IC50 was greater than 100 nM.
Then `Cc1nn(C)cc1S(=O)(=O)N1CC=C(c2ccc3cc(O)c(N4CC(=O)NS4(=O)=O)c(F)c3c2)C1` [Compound 310, 5-{7-[1-(1,3-dimethyl-1H-pyrazole-4-sulfonyl)-2,5-dihydro-1H-pyrrol-3-yl]-1-fluoro-3-hydroxynaphthalen-2-yl}-1λ^6,2,5-thiadiazolidine-1,1,3-trione], with 1 to 10 nM; and `CCS(=O)(=O)NCCOc1ccc2cc(O)c(N3CC(=O)NS3(=O)=O)c(F)c2c1` [Compound 311, N-(2-{[8-fluoro-6-hydroxy-7-(1,1,4-trioxo-1λ^6,2,5-thiadiazolidin-2-yl)naphthalen-2-yl]oxy}ethyl)ethanesulfonamide], with 1 to 10 nM.
The same measure for `O=C1CN(c2c(O)cc3ccc(C4=CCN(S(=O)(=O)c5ccoc5)C4)cc3c2F)S(=O)(=O)N1` [Compound 312, 5-{1-fluoro-7-[1-(furan-3-sulfonyl)-2,5-dihydro-1H-pyrrol-3-yl]-3-hydroxynaphthalen-2-yl}-1λ^6,2,5-thiadiazolidine-1,1,3-trione]: less than 1 nM.
In the case of `CC(C)CCS(=O)(=O)N1CC=C(c2ccc3cc(O)c(N4CC(=O)NS4(=O)=O)c(F)c3c2)C1` [Compound 313, 5-{1-fluoro-3-hydroxy-7-[1-(3-methylbutane-1-sulfonyl)-2,5-dihydro-1H-pyrrol-3-yl]naphthalen-2-yl}-1λ^6,2,5-thiadiazolidine-1,1,3-trione], the IC50 was less than 1 nM.
Consider `O=C1CN(c2c(O)cc3ccc(C4=CCN(S(=O)(=O)c5ccsc5)C4)cc3c2F)S(=O)(=O)N1` [Compound 314, 5-{1-fluoro-3-hydroxy-7-[1-(thiophene-3-sulfonyl)-2,5-dihydro-1H-pyrrol-3-yl]naphthalen-2-yl}-1λ^6,2,5-thiadiazolidine-1,1,3-trione], for which the IC50 is less than 1 nM.
With `O=C1CN(c2c(O)cc3ccc(C4=CCN(S(=O)(=O)c5ccccc5)C4)cc3c2F)S(=O)(=O)N1` [Compound 315, 5-{7-[1-(benzenesulfonyl)-2,5-dihydro-1H-pyrrol-3-yl]-1-fluoro-3-hydroxynaphthalen-2-yl}-1λ^6,2,5-thiadiazolidine-1,1,3-trione], the IC50 was less than 1 nM.
For `O=C1CN(c2c(O)cc3ccc(C4=CCN(S(=O)(=O)C5CCC5)C4)cc3c2F)S(=O)(=O)N1` [Compound 316, 5-{7-[1-(cyclobutanesulfonyl)-2,5-dihydro-1H-pyrrol-3-yl]-1-fluoro-3-hydroxynaphthalen-2-yl}-1λ^6,2,5-thiadiazolidine-1,1,3-trione], the IC50 is less than 1 nM.
In the case of `N#Cc1c[nH]c(-c2ccc3cc(O)c(N4CC(=O)NS4(=O)=O)c(F)c3c2)n1` [Compound 321, 2-[8-fluoro-6-hydroxy-7-(1,1,4-trioxo-1λ^6,2,5-thiadiazolidin-2-yl)naphthalen-2-yl]-1H-imidazole-4-carbonitrile], the IC50 lay in the range of 1 to 10 nM.

In general, IC50 refers to the concentration at which inhibition is half-maximal.
